Experiments:
Coxsackie B3 virus = experiment: Antiviral (cytoprotection, MTT) assay against Coxsackie B3 virus in Vero cells; type: cell-based, coxsackievirus B3; conditions: for IC50: 50% inhibition of virus replication, Vero cells, 48 h; for SI: CC50/IC50 ratio, Coxsackie B3 / Vero
in vitro [1] = conditions: dog
HuTu-80 = experiment: Cytotoxicity assay (Cytell Cell Imaging, DAPI/propidium iodide); type: cell-based; conditions: Homo sapiens, HuTu80; cytotoxic activity, duodenal adenocarcinoma; read-out: IC50 Cancer Cell Lines HuTu-80
PC-3 = experiment: as above; type: cell-based; conditions: cytotoxic activity, human prostate adenocarcinoma, read-out: IC50 Cancer Cell Lines PC-3
in vitro [2] = conditions: African green monkey, CC50, Vero cells, MTT; concentration causing 50% cell death
M-HeLa = experiment: Cytotoxicity assay (Cytell Cell Imaging, DAPI/propidium iodide); type: cell-based; conditions: cytotoxic activity, human cervix epitheloid carcinoma, read-out: IC50 Cancer Cell Lines M-HeLa
[3] = tested on: A/Puerto Rico/8/34 (H1N1) influenza virus; experiment: Antiviral (cytoprotection, MTT) assay against influenza virus in MDCK cells; type: cell-based; conditions: for SI: CC50/IC50 ratio, influenza H1N1 / MDCK; for IC50: Influenza A virus, H1N1, MDCK, 48 h, 50% inhibition of virus replication, read-out: IC50
WI-38 = experiment: Cytotoxicity assay (Cytell Cell Imaging, DAPI/propidium iodide); type: cell-based; conditions: cytotoxic activity, normal human lung fibroblasts, read-out: IC50 Normal Cell Line WI-38

SMILES | IC50 (Coxsackie B3 virus) | SI (Coxsackie B3 virus) | IC50 (Coxsackie B3 virus; Enterovirus B, B3, Vero) | CC50 (in vitro [1]) | IC50 (HuTu-80) | IC50 (PC-3) | CC50 (in vitro [2]) | CC50 (Vero cells; Vero cells, MTT, concentration causing 50% cell death) | IC50 (M-HeLa) | SI [3] | IC50 ([3]; MDCK cells) | antiviral activity against influenza virus A H1N1 (in words) ([3]; MDCK cells) | IC50 (WI-38) | cytotoxicity against the Vero cell line (in words) (Vero cells)
CC(=O)OCC1OC(n2cc(CCCCn3c(=O)c4nc5ccccc5nc4n(CCCCc4cn(C5OC(COC(C)=O)C(OC(C)=O)C5OC(C)=O)nn4)c3=O)nn2)C(OC(C)=O)C1OC(C)=O (stereo not drawn) [Compound 5f] | > 11.3 µM | 2 | 11.3 µM | > 308 µM | > 100 µM | 66.8 ± 5.3 µM | 18 µM | 17.8 ± 1.1 µM | 71.4 ± 6.3 µM | 3 | 91.6 ± 10.8 µM | inactive | > 100 µM | 
O=c1c2nc3ccccc3nc2n(CCCCc2cn(C3OC(CO)C(O)C3O)nn2)c(=O)n1CCCCc1cn(C2OC(CO)C(O)C2O)nn1 (stereo not drawn) [Compound 5i] |  | 1 | > 414 µM | > 414 µM | > 100 µM | > 100 µM | > 414 µM |  | 71 ± 6.1 µM | 17 | 24.3 ± 3.2 µM |  | > 100 µM | not cytotoxic
